Test results from US20100173281A1, “HCV NS3 protease replicon shuttle vectors” (priority 2009, published 2010).
pIC50: −log10 of the molar value. Like-named read-outs stand apart in the source and are kept apart here.

What was measured:
[1] = test system: replicons that contain HCV genotype-1a patient-derived NS3 protease domains in Lunet Huh7 cells; experiment: Phenotypic replicon assay (transient replicon, firefly luciferase reporter), genotype-1a patient-derived NS3 protease; assay type: cell-based
[2] = test system: replicon shuttle vector pSC_1b_NS3/Protease_EcoRV_AsiSI in Lunet Huh7 cells; experiment: Phenotypic replicon assay (transient replicon, firefly luciferase reporter), control shuttle vector; assay type: cell-based, HCV; conditions: read-out: Mean IC50
Experimental: Phenotypic Replicon Assay
Five micrograms of DNA plasmids were linearized by Sca I restriction enzyme (Roche). After overnight digestion at 37° C., the DNA was purified using Qiagen PCR purification kit. One microgram of linearized DNA was used for the in vitro transcription using T7 RiboMAX Express (Promega) following manufacturer's protocol. After 2 hours of incubation at 37° C., DNase treatment was performed for 30 minutes at 37° C. to remove the DNA template. In vitro transcribed RNA was then purified using RNeasy spin column (Qiagen) following manufacturer's protocol.
The hepatoma Lunet Huh-7 cell line were cultured at 37° C. in a humidified atmosphere with 5% CO2 in Dulbecco's Modified Eagle Medium (DMEM) supplemented with Glutamax™ and […] sodium pyruvate. The medium was further supplemented with 10% (v/v) FBS and 1% (v/v) penicillin/streptomycin. All reagents were from Invitrogen/Gibco.
Four million Lunet Huh7 cells were transfected with 5 μg of in vitro transcribed RNA using electroporation. Cells were then resuspended in 7.2 ml of DMEM containing 5% FBS and plated in 96-well plate at 50000 cells/well (in 90 μl final volume). Inhibitors (when used) were added 24 hours post-transfection in 3 fold dilutions at a final DMSO concentration of 1% and firefly luciferase reporter signal was read 72 hours after addition of inhibitors using the Luciferase Assay system (Promega). The IC50 values were assessed as the inhibitor concentration at which a 50% reduction in the level of firefly luciferase reporter was observed as compared to the level of firefly luciferase signal without the addition of compounds.
The replication capacity of the replicon shuttle vector, pSC—1b_NS3/Protease_EcoRV_AsiSI, as well as those of replicons that contain HCV genotype-1a and genotype-1b patient-derived NS3 protease domains were tested with the luciferase signal as the readout and the results are shown on FIG. 3. The inhibitory effects of the HCV protease inhibitors, BILN2061, VX-950 and NM107 were also tested on these replicons and the results are shown on Table 1.

[3] = test system: replicons that contain HCV genotype-1b patient-derived NS3 protease domains in Lunet Huh7 cells; experiment: Phenotypic replicon assay (transient replicon, firefly luciferase reporter), genotype-1b patient-derived NS3 protease; assay type: cell-based
[4] = Hepatitis C virus, Huh-7, read-out: Mean IC50, GT-1a patient sample RO-191
[5] = Hepatitis C virus, Huh-7, read-out: Mean IC50, GT-1a patient sample RO-192
[6] = Hepatitis C virus, Huh-7, read-out: Mean IC50, GT-1a patient sample RO-193
[7] = Hepatitis C virus, Huh-7, read-out: Mean IC50, GT-1a patient sample RO-194
[8] = Hepatitis C virus, Huh-7, read-out: Mean IC50, GT-1a patient sample RO-195
[9] = Hepatitis C virus, Huh-7, read-out: Mean IC50, GT-1a patient sample RO-207
[10] = Hepatitis C virus, Huh-7, read-out: Mean IC50, GT-1b patient sample 206
[11] = Hepatitis C virus, Huh-7, read-out: Mean IC50, GT-1b patient sample 301
[12] = Hepatitis C virus, Huh-7, read-out: Mean IC50, GT-1b patient sample PC232

COc1ccc2c(O[C@@H]3C[C@H]4C(=O)N[C@]5(C(=O)O)C[C@H]5/C=C\CCCCC[C@H](NC(=O)OC5CCCC5)C(=O)N4C3)cc(-c3csc(NC(C)C)n3)nc2c1 [BILN2061]
pIC50 [1, 4]: 9.10
pIC50 [1, 5]: 9.47
pIC50 [1, 6]: 9.53
pIC50 [1, 7]: 9.18
pIC50 [1, 8]: 9.20
pIC50 [1, 9]: 9.41
pIC50 ([2]; Hepatitis C virus, Huh-7, 72 h): 9.31
pIC50 [3, 10]: 9.19
pIC50 [3, 11]: 9.42
pIC50 [3, 12]: 9.33

C[C@@]1(O)[C@H](O)[C@@H](CO)O[C@H]1n1ccc(N)nc1=O [NM107]
pIC50 ([1]; GT-1a patient sample RO-191, read-out: Mean IC50): 6.27
pIC50 ([1]; GT-1a patient sample RO-192, read-out: Mean IC50): 6.26
pIC50 ([1]; GT-1a patient sample RO-193, read-out: Mean IC50): 6.19
pIC50 ([1]; GT-1a patient sample RO-194, read-out: Mean IC50): 6.29
pIC50 ([1]; GT-1a patient sample RO-195, read-out: Mean IC50): 6.51
pIC50 ([1]; GT-1a patient sample RO-207, read-out: Mean IC50): 5.93
pIC50 ([2]; replicon control pSC_1b_NS3/Protease_EcoRV_AsiSI, luciferase read 72 hours after addition of inhibitors): 6.55
pIC50 ([3]; GT-1b patient sample 206, read-out: Mean IC50): 6.55
pIC50 ([3]; GT-1b patient sample 301, read-out: Mean IC50): 6.55
pIC50 ([3]; GT-1b patient sample PC232, read-out: Mean IC50): 6.35

CCC[C@H](NC(=O)[C@@H]1[C@H]2CCC[C@H]2CN1C(=O)[C@@H](NC(=O)[C@@H](NC(=O)c1cnccn1)C1CCCCC1)C(C)(C)C)C(=O)C(=O)NC1CC1 [VX-950]
pIC50 [1, 4]: 10.24
pIC50 [1, 5]: 10.17
pIC50 [1, 6]: 9.88
pIC50 [1, 7]: 10.28
pIC50 [1, 8]: 10.55
pIC50 [1, 9]: 10.08
pIC50 ([2]; Hepatitis C virus, Huh-7, 72 h): 9.80
pIC50 [3, 10]: 9.76
pIC50 [3, 11]: 9.79
pIC50 [3, 12]: 9.78
